Experimental data as given in patent US5211657A, “Laminin a chain deduced amino acid sequence, expression vectors and active synthetic peptides” (The United States Government as represented by the …, priority 1988, dated 1993).

Experiments:
[1] = test system: cells in culture and tumor cells in vivo; assay: Various biological activities with cells in culture and tumor cells in vivo (comparison of derivatives); conditions: all presently found activities
[2] = test system: HT-1080 fibrosarcoma cells; conditions: background statement; cited from earlier work
[3] = test system: neural cell lines (PC-12, NG108-15) and primary cultures of neural cells; conditions: background statement; cited from earlier work
EGF-like activity = conditions: personal communication; cited from earlier work
[4] = test system: endothelial cell binding to laminin; assay: Competition with intact laminin for endothelial cell binding; type: cell-based; conditions: endothelial cells
From the text: Many of the same cells which recognize peptide PA22-2 and YIGSR also recognize and bind to PA21 and PA26 but the degree of binding is quite different. […] Since the sequence of PA36 is unique to laminin, the response of endothelial cells to PA36 is likely to be specific to the peptide.

HUVEC (endothelia cell) = assay: Cell attachment and spreading on coated dish (Table IV); type: cell-based, Human; conditions: endothelial cells
Description: (§1) A further aspect of the invention provides synthetic peptides from the deduced amino acid sequence of the cDNA sequence for the A chain. These synthetic peptides can be synthesized by any suitable method such as one previously used by our group (Graf et al (1987) Cell 48:989). A variety of synthetic peptides are tested for biological activity such as promoting cell adhesion, migration, growth and preventing invasion of tumor cells (see locations and sequences of the active peptides in FIG. 14 and Table III). […] A: increasing amounts of peptide were coated onto a 24 well dish in DMEM for 2 hours. The unbound peptide was removed and the wells were incubated with DMEM containing 3% BSA before the addition of cells. B and C: Morphological appearance of cells attached on peptide and laminin substrates. In the absence of peptides or laminin, few cells were attached. Table III is shown below.
(§2) This peptide is active with various cells and its activity can be equal to that of laminin itself in terms of the total number of cells that can attach to surfaces coated with the peptide. […] Table IV is shown below.

B16F10 Melonoma Cells = assay: Lung tumor formation after tail vein injection of B16F10 melanoma cells with peptide; type: in vivo, mice; conditions: for Number of Tumors/animal: lung surface tumors after 3 weeks, no peptide: 26
From the text: It is well known that tumor cells must attach degrade, and migrate through basement membranes in order to spread to distant sites. Laminin is known to increase the metastic phenotype of tumor cells and the number of tumors formed in mice. Using a line of B16 melanoma cells which specifically colonize the lung when injected into mouse tail vein, we have studied the effect of peptide PA22-2 on the formation of lung tumors.
In these studies, various amounts of peptide PA22-2 are mixed with the B16F10 melanoma cells (5×10^4) and injected into mice via the tail vein. Eight mice are injected for each concentration of test peptide. After 2-3 weeks, the mice are sacrificed and the number of […] colonies on the lung surface are counted.
10^5 melanoma cells in a final volume of 0.2 ml of Dulbecco's
modification of Eagle's medium (DMEM) containing the indicated amount and
type of peptide were injected in the tail vein. Eight mice were in each
test group. After 3 weeks, the mice were sacrificed, lungs were removed.
The number of tumors on the surface of the lungs was determined by using
Each group contained 8 mice which were injected with […] B16F10 Melanoma cells via the tail vein in a final volume of 0.2 DMEM containing the designated amount of peptide. After three weeks, the animals were sacrificed and the number of colonies on the surface of the lungs was determined.

[5] = test system: laminin-mediated cell adhesion; assay: Blocking of laminin-mediated cell attachment by soluble peptide; type: cell-based; conditions: laminin coated dish; peptide added with cells; one and a half hours
Description: Laminin was coated on the dish as described above, then peptide togehter with cells were added to the dishes and cell adhesion after one and a half hours was determined.

[6] = test system: Human umbilical vein endothelial cells; assay: Endothelial cell tube formation on reconstituted basement membrane; type: cell-based
Description: Human umbilical vein endothelial cells when coated on a reconstituted basement membrane substrate rapidly (by 12 hours) organize into capillary-like structures (see FIG. 18A). […] It may have a potential clinical use in blocking blood vessel formation as for example, during the vascularization of tumors and in diabetic retinopathy (ex diabetic retinopathy or Kaposi sarcoma). […] 18A: Morphology of cells. Cells were plated on a reconstituted basement membrane substrate and after 2 and 18 hours it is apparent that the cells line up into capillary-like structures. […] 18B: Adhesion to peptides. 18C: peptide inhibition of tube formation.

[7] = test system: neural cell lines (PC-12, NG108-15) and primary cultures of neural cells; assay: Neurite outgrowth / process formation on coated peptide; type: cell-based; conditions: peptide coated on plastic dish
Description: In fact, laminin promotes regeneration faster and over greater distances than any other factor described to date. […] It is active in a dose-dependent manner and is active both with neural cell lines (PC-12 FIGS. 17A and B and NG108-15) and with primary cultures of neural cells both from the peripheral and the central nervous system. The processes formed appear identical to those observed with intact laminin (see FIG. 17A).
The assay was carried out in a similar manner to the cell adhesion assay. 17A: Morphology after 4 hours. 17B: Dose response curve showing number of processes formed. Cells were directly counted from at least 10 microscopic fields.

B16-F10 and PC12 cells = assay: Cell growth; type: cell-based
B16F10 (melanoma) = assay: Cell attachment and spreading on coated dish (Table IV); type: cell-based
Description: as §1, §2

HT1080 (fibrosarcoma) = assay: as above; type: cell-based; conditions: HT-1080
Description: as §1, §2

[8] = test system: HT-1080 fibrosarcoma cells; assay: Collagenase production (collagen IV degrading enzymes in conditioned medium); type: cell-based; conditions: HT-1080 cells treated for 6 hours
Description: This enzyme is thought to be important in cancer where its production is correlated with the invasive and metastatic activity of malignant tumor cells. In fact, degradation of basement membranes by collagenase IV is a necessary step in the metastatic process. […] The cells were treated for 6 hours with various amounts of the peptide and then the conditional medium was assayed for the production of collagen IV degrading enzymes. The effect is dose-dependent and is not reproduced by any other peptide tested to date. The importance of localizing this activity to peptide PA22-2 is that it will now be possible to more precisely define the molecular events involved in the metastatic process. Competitive inhibitors of this activity can be readily designed by modification of the composition of the active peptide i.e. Dasmano acids, cyclic forms etc. There may also be situations where the production of the enzyme could be advantageous such as in speeding the migration of leukocytes to sites of infection.

various cells = assay: Cell attachment to peptide coated on plastic; type: cell-based
Description: as §1, §2

cell migration = assay: Cell migration; type: cell-based

## XIKVAVSADR [PA22-4]
[1]
  Activity relative to PA22-2: almost equally active

## XRKQAASIKVAVS [PA22-3]
[1]
  Activity relative to PA22-2: almost equally active

## Laminin: large glycoprotein localized to basement membranes, composed of three chains A, B1 and B2; prepared from EHS tumor
[2]
  Collagenase production / release (background): induces the production of collagenase IV
[3]
  Neurite outgrowth promoting activity (background): very active in promoting neurite outgrowth
EGF-like activity
  EGF-like activity: exert EGF-like growth factor activity

## CSKCQAGTFALR [PA36]
[4]
  Competition with intact laminin for endothelial cell binding to laminin: effectively competes with intact laminin for endothelial cell binding to laminin
HUVEC (endothelia cell)
  Endothelial cell adhesion to peptide: specifically active with endothelial cells for cell adhesion

## XSRARQAASIKVAVSADR [PA22-2]
B16F10 Melonoma Cells; 0.5 mg peptide injected with melanoma cells in tail vein
  Number of Tumors/animal: 44
B16F10 Melonoma Cells; 1 mg peptide injected with melanoma cells in tail vein
  Number of Tumors/animal: 53
B16F10 Melonoma Cells; 1 mg/mouse
  Increase in the number of lung tumors: two-fold increase
[5]
  Blocking of laminin-mediated cell adhesion: can complete (i.e. block) laminin-mediated cell adhesion
[6]
  Adhesion of HUVEC: does not alter the adhesion of these cells
[6]; HUVEC on reconstituted basement membrane
  Formation of capillary-like structures (tube formation): block the formation of capillary-like structures
[7]
  Neurite outgrowth promoting activity: mimics the neurite promoting activity of laminin
B16-F10 and PC12 cells
  Cell growth: stimulate growth
B16F10 (melanoma)
  Spreading on substrates coated with the peptide: spreading is observed
HT1080 (fibrosarcoma)
  Spreading on substrates coated with the peptide: spreading is not observed
[8]
  Production of collagenase: increase in the production of collagenase to levels comparable to those observed with intact laminin
Various cells
  Cell adhesion / attachment to coated peptide: promotes the adhesion of various epithelial cells in a rapid dose-dependent manner
Heparin binding
  Heparin binding: promote activity to bind heparin
Cell migration
  Cell migration: active

## XGQIKKSPAVKVT [pA31-2]
Various cells
  Cell adhesion / attachment to coated peptide: has some cell attachment activity

## XFALRGDNPQG [PA26]
Various cells
  Cell adhesion / attachment to coated peptide: support the attachment of many cells

## XGQIKKSPAVKVTHFKG [pA31-1]
Various cells
  Cell adhesion / attachment to coated peptide: active for cell attachment
